Values after ≈ are worked out from the molar mass of the structure shown.
Columns and labels:
[1] = Binding affinity to cannabinoid receptor in rat brain membrane assessed as cannabinomimetic activity; assay type: cell membranes
[2] = Toxicity in Artemia salina; assay type: organism-based; conditions: in vivo, read-out: LD50 (the source's name)

## CCCCCCC[C@@H]1C[C@H]1CCC(=O)O/C=C\C=C\COC(C)=O [DEBROMOGRENADINE]
[1]
  Ki: 4.7 µM
[2]
  LC50: 5 µg/mL (≈ 14.9 µM)

## CCCCCCC[C@@H]1C[C@H]1CCC(=O)NCCc1ccccc1 [GRENADAMIDE C]
[1]
  Ki: 4.7 µM
[2]
  LC50: 5 µg/mL (≈ 15.8 µM)

Source: ChEMBL document CHEMBL1150893, “Grenadadiene and grenadamide, cyclopropyl-containing fatty acid metabolites from the marine cyanobacterium Lyngbya majuscula” (J Nat Prod, 1998)
